Results taken from patent US8541426B2, “Pharmaceutical compositions and methods of treating dry eye disorders” (Pfizer Inc., priority 2007, dated 2013).

Columns and labels:
[1] = tested on: dry-induced C57 mice; experiment: Induced dry eye mouse model (scopolamine and fans), tear production; format: in vivo; conditions: for tear production versus normal tear production values: after 4 days of treatment, induced dry eye mice
Description: An injection was prepared comprising 2.5 mg/ml scopolamine (sigma) in injectable saline (1-1.5 ml per animal). In normal C57 mice (200-250) ul of scopolamine was injected four times every 2.5 hrs in alternating hind quarters. The mice were placed in special cages (with holes in front and back) and placed in a hood. Fans were placed in front of each cage, and turned on for 16 hours over night for five days.
Measurements were taken daily.
As with Examples 4 and 5 above, animals were treated with drug or vehicle at 1 μl, once a day for 2 weeks.

[2] = tested on: MRL/Ipr (Dry Eye) Mice
Description: To study the level of tear production over time, 10 MRL/Ipr mice and 5 of the age-matched C57 Black/6 control mice at 8 weeks of age were purchased from Jackson Laboratory (Bar Harbor, Me., USA). The mouse strain MRL/Ipr has a mutation which predisposes it to dry eye similar to Sjogren's Syndrome.
Tear production was measured with cotton thread (Quick Zone®) held with forceps and applied to the ocular surface at the lateral canthus for 15 to 30 seconds. Wetting of the thread was measured in millimeters.
C57 mice also received vehicle. Tear volume was measured on days 2, 3, and 6.
Tear measurement was done using phenol red impregnated thread (Quick Zone®) and baseline measurement was performed before each drug application. Drugs or vehicles were applied at 2 μl, two times a day.
Vehicle-treated normal C57black/6 and MRL/Ipr dry eye mice were used as normal control and dry eye control, respectively.
Control animals included normal C57Black/6 mice, and MRL/Ipr mice, treated with PBS vehicle and MRL/Ipr mice treated with Refresh Endura® (vehicle for Restasis) (5-10 mice/group).
As with Example 4 above, vehicle-treated normal C57black/6 and MRL/Ipr dry eye mice (5-10 mice/group) were used as normal control and dry eye control, respectively. […] Treatment for Formulation 1 was carried for two weeks, at 2 μl, twice a day.

[3] = CP-690550 0.01% vs Restasis (cyclosporine 0.05%), twice a day for 30 days, MRL/Ipr mice (FIG. 3)

C[C@@H]1CCN(C(=O)CC#N)C[C@@H]1N(C)c1ncnc2[nH]ccc12 [CP0690550, 3-{(3R,4R)-4-Methyl-3-[methyl-(7H-pyrrolo[2,3-d]pyrimidin-4-yl)-amino]-piperidin-1-yl}-3-oxo-propionitrile]
tear production versus normal tear production values ([1]; 0.003% in Formulation 5, once a day): approximated normal tear production values
tear production versus normal tear production values ([1]; 0.01% (w/w) in Formulation 3, once a day): approximated normal tear production values
increase in tear production ([1]; Formulations 3 and 5, 1 μl once a day, at 2 days of treatment, induced dry eye mice (FIGS. 7 and 8)): significant increase
tear production comparable to normal: within x% of tear production by C57 normal mice ([2]; 0.01% (w/w) in Formulation 1 vehicle, twice a day, within 8 days, MRL/Ipr mice (FIG. 4)): 5 to 10%
increase of tear production volume ([2]; 0.1% (w/w) twice a day, topical, MRL/Ipr mice, within the first 2 days of application (FIG. 2)): significantly increase
response rate as compared to Restasis [2, 3]: much faster response rate
volume of tear production over Restasis [2, 3]: significant improvement
improvement in tear production ([2]; all comparisons (Formulations 1, 3 and 4 vehicle, FIGS. 4-6), 2 days after treatment, MRL/Ipr mice): significant improvement
tear production volume comparable to normal: within x% of tear production by normal C57 mice ([2]; ultimately reached, MRL/Ipr mice, FIGS. 3 and 4): 5 to 10%
